Experimental findings from ChEMBL document CHEMBL3526085, “Decreased hepatic breast cancer resistance protein expression and function in multidrug resistance-associated protein 2-deficient (TR⁻) rats” (Drug Metab Dispos, 2011) are described below.

The data set has as its system Hepatocyte. As to conditions: rat, hepatocytes, 10 min, 5 µM.

`O=C(O)C[C@H](O)C[C@H](O)/C=C/c1c(C2CC2)nc2ccccc2c1-c1ccc(F)cc1` [PITAVASTATIN] came in with a CLb of 52%.
